Test results reported in ChEMBL document CHEMBL4840374, “Cytochalasin Derivatives from the Endozoic Curvularia verruculosa CS-129, a Fungus Isolated from the Deep-Sea Squat Lobster Shinkaia crosnieri Living in the Cold Seep Environment” (J Nat Prod, 2021).

Key:
HCT-116 = experiment: Cytotoxicity against human HCT-116 cells assessed as reduction in cell viability after 72 hrs by MTT assay; format: functional, cell-based
MCF7 = experiment: Cytotoxicity against human MCF7 cells assessed as reduction in cell viability after 72 hrs by MTT assay; format: functional, cell-based
HepG2 = experiment: Cytotoxicity against human HepG2 cells assessed as reduction in cell viability after 72 hrs by MTT assay; format: functional, cell-based
Edwardsiella tarda = experiment: Antibacterial activity against […] QDIO-10 assessed as reduction in microbial growth by microtiter plate reader assay; format: functional
Vibrio parahaemolyticus = experiment: Antibacterial activity against Vibrio parahaemolyticus QDIO-8 assessed as reduction in microbial growth by microtiter plate reader assay; format: functional
Escherichia coli = experiment: Antibacterial activity against Escherichia coli EMBLC-1 assessed as reduction in microbial growth by microtiter plate reader assay; format: functional
[1] = Homo sapiens, HCT-116, 72 h, read-out: IC50
[2] = Homo sapiens, MCF7, 72 h, read-out: IC50
[3] = Homo sapiens, HepG2, 72 h, read-out: IC50

| SMILES | IC50 (HCT-116; [1]) [µM] | IC50 (MCF7; [2]) [µM] | IC50 (HepG2; [3]) [µM] | MIC (Edwardsiella tarda) [µg/mL] | other results |
| --- | --- | --- | --- | --- | --- |
| C=C1[C@@H](C)[C@H]2[C@H](Cc3ccccc3)NC(=O)[C@]23C(=O)/C=C/[C@H](O)CCC[C@@H](C)C/C=C/[C@H]3[C@@H]1O [DEOXAPHOMIN] | 7.6 | 7 | 7.1 |  |  |
| C=C1[C@@H](C)[C@H]2[C@H](Cc3ccccc3)NC(=O)[C@]23OC(=O)/C=C/[C@H](O)[C@H](O)CC[C@@H](C)C/C=C/[C@H]3[C@@H]1O | 9.5 | 6 | 6.4 | 8 |  |
| C=C1[C@@H](C)[C@H]2[C@H](Cc3ccccc3)NC(=O)[C@]23OC(=O)/C=C/[C@H](O)CCC[C@@H](C)C/C=C/[C@H]3[C@@H]1O [CYTOCHALASIN B] | 12 | 5.2 | 9.5 |  | MIC (Vibrio parahaemolyticus): 4 µg/mL |
| C=C1[C@@H](C)[C@H]2[C@H](Cc3ccccc3)NC(=O)[C@]23OC(=O)/C=C/CCCC[C@@H](C)C/C=C/[C@H]3[C@@H]1O |  |  |  |  | IC50 (HCT-116; hct-116): Not Active; IC50 (MCF7; mcf7): Not Active; IC50 (HepG2; hepg2): Not Active |
| C[C@H]1C/C=C/[C@H]2[C@@H]3O[C@]3(C)[C@@H](C)[C@H]3[C@H](Cc4ccccc4)NC(=O)[C@]32OC(=O)/C=C/[C@H](O)CCC1 |  |  |  | 8 |  |
| C=C1[C@@H](C)[C@H]2[C@H](Cc3ccccc3)NC(=O)[C@]23OC(=O)[C@@H](S[C@H]2CC(=O)CCC[C@@H](C)C/C=C/[C@H]4[C@H](O)C(=C)[C@@H](C)[C@H]5[C@H](Cc6ccccc6)NC(=O)[C@]54OC2=O)CC(=O)CCC[C@@H](C)C/C=C/[C@H]3[C@@H]1O |  |  |  |  | MIC (Escherichia coli): 2 µg/mL |
| O=C(N[C@H](CO)[C@H](O)c1ccc([N+](=O)[O-])cc1)C(Cl)Cl [CHLORAMPHENICOL] |  |  |  | 0.5 | MIC (Vibrio parahaemolyticus): 2 µg/mL |
